Assay results taken from article PMC10821532, “Sex and Cross-Sex Testosterone Treatment Alters Gamma-Hydroxybutyrate Acid Toxicokinetics and Toxicodynamics in Rats” (Pharmaceutics, 2024).

System: Sprague Dawley (SD) rats
Test: Sedative/hypnotic effect (sleep time, RRR-LRR) after i.v. GHB
Assay type: in vivo
Conditions: 1500 mg/kg GHB iv
Experimental: Jugular vein cannulas were surgically implanted under anesthesia with ketamine/xylazine. Cannulas were flushed daily with heparinized saline to maintain patency. Rats were allowed a minimum of 72 h for recovery from surgery before the experiments were conducted. GHB was administered intravenously as a 1000 mg/kg i.v. bolus or 1500 mg/kg iv bolus with or without AR-C155858 (1 mg/kg i.v. bolus) via a jugular vein cannula to the animals at 13 weeks of age (N = 5–7 per group). Rats were dosed in metabolic cages with ad libitum access to water to allow for the concurrent collection of blood and urine samples for up to 8 h. GHB was administered as a 300 mg/mL solution in sterile water, and the time of administration was considered as time 0. AR-C155858 was administered as a 1 mg/mL solution in 10% cyclodextrin in normal saline 5 min after GHB administration. Blood samples (200 μL) were taken from the jugular vein cannula at different time points: 5, 10, 20, 30, 60, 90, 120, 180, 240, 270, 300, and 330 min for 1000 mg/kg and 10, 30, 60, 90, 120, 180, 240, 270, 300, 330, 360, and 390/480 min for 1500 mg/kg bolus with or without AR-C155858. Plasma samples were separated by centrifugation and stored at −20 °C. Urine samples were collected at 120, 240, and 360 min for 1000 mg/kg and 120, 240, and 390/480 min for 1500 mg/kg bolus with or without AR-C155858 post-dose; the total urine volume was determined, and the samples were stored at −20 °C.
The sedative/hypnotic effects (sleep time) were determined, as described in a previous publication. The sedative/hypnotic duration effect of GHB was determined as the difference between the offset of the sedative/hypnotic effect (RRR) and the onset of the sedative/hypnotic effect (LRR).

SMILES: O=C(O)CCCO [GHB, Γ-hydroxybutyric acid]
- Sleep time (RRR–LRR), average (testosterone-treated CST rats): 422.5 min
- Sleep time, two individual rats (two of the testosterone-treated CST rats): ~ 600 min
